Laboratory results taken from US20170000749A1, “Methods for Treating Cognitive Disorders Using Inhibitors of Histone Deacetylase” (Forum Pharmaceuticals, Inc., priority 2008, published 2017).
Where two headings read alike, the source gives them in different places.

Legend:
[1] = molecular target: one or more of HDAC-1, HDAC-2, HDAC-3, HDAC-4, HDAC-5, HDAC-6, HDAC-7, HDAC-8, HDAC-9, HDAC-10 and HDAC-11; test: Inhibition of Histone Deacetylase Enzymatic Activity (Boc-Lys(Ac)-AMC substrate, Fluor-de-Lys developer); type: biochemical; conditions: read-out: HDAC Inhibition (IC50 μM) HDAC Enzyme
Protocol: The following protocol is used to assay the compounds of the disclosure.
The mixture is pre-incubated for 5 minutes at room temperature. The reaction is started by bringing the temperature to 37° C. and adding 16 μl substrate. Total reaction volume is 50 μl.
In the Tables 8, 9 and 10, A≦0.05 μM; 0.05 μM<B≦0.1 μM; 0.1 μM<C≦1 μM; and 1 μM<D≦10 μM.

[2] = tested on: HDAC activity in primary mouse cortical cultures; test: Whole-Cell Histone Deacetylase (HDAC) Inhibition Assay in Primary Mouse Cortical Cultures; type: cell-based
Procedure, shortened: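 Primary neocortical neurons from E17 Balb/C mouse embryos were plated at 50000 cells/well and treated at DIV9 with ten-point DMSO dilutions for 16-18 h at 37° C, in triplicate. BOC-Lys(Ac)-AMC substrate was then added for 1 h. Fluor de Lys developer containing 1 uM TSA produced a fluorophore, which was read.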

[3] = whole-cell (WC), mouse cortical neurons, Table 9, read-out: HDAC Inhibition (IC50 μM) WC mouse cortical neurons
[4] = whole-cell (WC), mouse cortical neurons, Table 8, read-out: HDAC Inhibition (IC50 μM) WC mouse cortical neurons
[5] = whole-cell (WC), mouse cortical neurons, Table 10, read-out: HDAC Inhibition (IC50 μM) WC mouse cortical neurons

Compound	IC50 ([1]; Table 8)	IC50 [2, 4]	IC50 ([1]; Table 10)	IC50 [2, 5]	also measured
O=C(NO)c1cnc(N2C[C@@H]3C[C@H]2CN3c2noc3ccccc23)nc1 [2-((1S,4S)-5-(benzo[d]isoxazol-3-yl)-2,5-diazabicyclo[2.2.1]heptan-2-yl)-N-hydroxypyrimidine-5-carboxamide]					IC50 ([1]; Table 9): < 0.05 µM; IC50 [2, 3]: < 1 µM
O=C(NO)c1ccc(C2=Nc3cccnc3Oc3ccccc32)cc1 [(Z)-4-(benzo[f]pyrido[2,3-b][1,4]oxazepin-6-yl)-N-hydroxybenzamide]	< 0.05 µM	1 to 5 µM			
O=C(NO)c1ccc(C2=Nc3ccccc3N(CCN3CCOCC3)c3ncccc32)cc1 [(Z)-N-hydroxy-4-(11-(2-morpholinoethyl)-11H-benzo[b]pyrido[2,3-e][1,4]diazepin-5-yl)benzamide]	0.05 to 0.1 µM	1 to 5 µM			
O=C(NO)c1cnc(N2C[C@@H]3C[C@H]2CN3c2cccc(OC(F)(F)F)c2)nc1 [N-hydroxy-2-((1S,4S)-5-(3-(trifluoromethoxy)phenyl)-2,5-diazabicyclo[2.2.1]heptan-2-yl)pyrimidine-5-carboxamide]					IC50 ([1]; Table 9): < 0.05 µM; IC50 [2, 3]: < 1 µM
O=C(NO)c1ccc(C2=Nc3ccccc3Oc3ccccc32)s1 [(E)-5-(dibenzo[b,f][1,4]oxazepin-11-yl)-N-hydroxythiophene-2-carboxamide]	< 0.05 µM	1 to 5 µM			
O=C(CCCCCCn1c(=O)c2ccccc2c2ccccc21)NO [N-hydroxy-7-(6-oxophenanthridin-5(6H)-yl)heptanamide]			< 0.05 µM	< 1 µM	
O=C(CCCCCCC(=O)N1Cc2ccccc2Oc2ccccc21)NO [8-(dibenzo[b,f][1,4]oxazepin-10(11H)-yl)-N-hydroxy-8-oxooctanamide]			0.1 to 1 µM	1 to 5 µM	
COCCOc1cccc2c1Oc1ccccc1N=C2c1ccc(C(=O)NO)cc1 [(Z)—N-hydroxy-4-(4-(2-methoxyethoxy)dibenzo[b,f][1,4]oxazepin-11-yl)benzamide]	< 0.05 µM	1 to 5 µM			
O=C(NO)c1ccc(CN2C(=O)c3cccnc3N(C3CC3)c3ccccc32)cc1 [4-((11-cyclopropyl-5-oxo-5H-benzo[b]pyrido[2,3-e][1,4]diazepin-6(11H)-yl)methyl)-N-hydroxybenzamide]			0.1 to 1 µM	5 to 15 µM	
Cc1ccccc1N1C[C@@H]2C[C@H]1CN2c1ncc(C(=O)NO)cn1 [N-hydroxy-2-((1S,4S)-5-o-tolyl-2,5-diazabicyclo[2.2.1]heptan-2-yl)pyrimidine-5-carboxamide]					IC50 ([1]; Table 9): 0.05 to 0.1 µM; IC50 [2, 3]: 1 to 5 µM
O=C(NO)c1ccc(N2C[C@@H]3C[C@H]2CN3c2cccc(C(F)(F)F)c2)cc1 [N-hydroxy-4-((1S,4S)-5-(3-(trifluoromethyl)phenyl)-2,5-diazabicyclo[2.2.1]heptan-2-yl)benzamide]					IC50 ([1]; Table 9): 0.1 to 1 µM; IC50 [2, 3]: 1 to 5 µM
O=C(NO)c1ccc(C2=Nc3ccccc3Oc3c(F)cccc32)cc1 [(Z)-4-(4-fluorodibenzo[b,f][1,4]oxazepin-11-yl)-N-hydroxybenzamide]	0.1 to 1 µM	5 to 15 µM			
O=C(NO)c1ccc(OCCN2CCOc3ccccc3C2=O)cc1			< 0.05 µM	1 to 5 µM	
O=C(NO)c1ccc(C2=Nc3ccccc3N(C3CC3)c3ncccc32)cc1 [(Z)-4-(11-cyclopropyl-11H-benzo[b]pyrido[2,3-e][1,4]diazepin-5-yl)-N-hydroxybenzamide]	< 0.05 µM	< 1 µM			
CN1c2ccccc2Oc2ccccc2C1c1ccc(C(=O)NO)cc1 (stereo not drawn) [N-hydroxy-4-(10-methyl-10,11-dihydrodibenzo[b,f][1,4]oxazepin-11-yl)benzamide]	0.1 to 1 µM	5 to 15 µM			
O=C(NO)c1cnc(N2C[C@@H]3C[C@H]2CN3c2cccc(C(F)(F)F)c2)cn1 [N-hydroxy-5-((1S,4S)-5-(3-(trifluoromethyl)phenyl)-2,5-diazabicyclo[2.2.1]heptan-2-yl)pyrazine-2-carboxamide]					IC50 ([1]; Table 9): 0.1 to 1 µM; IC50 [2, 3]: 5 to 15 µM
O=C(NO)c1cnc(N2C[C@@H]3C[C@H]2CN3Cc2ccccc2)nc1 [2-((1S,4S)-5-benzyl-2,5-diazabicyclo[2.2.1]heptan-2-yl)-N-hydroxypyrimidine-5-carboxamide]					IC50 ([1]; Table 9): 0.1 to 1 µM; IC50 [2, 3]: 1 to 5 µM
O=C(NO)c1ccc(C2=Nc3ccccc3N(CCCN3CCOCC3)c3ncccc32)cc1 [(Z)-N-hydroxy-4-(11-(3-morpholinopropyl)-11H-benzo[b]pyrido[2,3-e][1,4]diazepin-5-yl)benzamide]	0.1 to 1 µM	1 to 5 µM			
O=C(NO)c1ccc(CN2C(=O)c3ccccc3Oc3ccccc32)cc1 [N-hydroxy-4-((11-oxodibenzo[b,f][1,4]oxazepin-10(11H)-yl)methyl)benzamide]			< 0.05 µM	< 1 µM	
O=C(NO)c1cnc(N2C[C@@H]3C[C@H]2CN3c2ccc(C(F)(F)F)cc2F)nc1 [2-((1S,4S)-5-(2-fluoro-4-(trifluoromethyl)phenyl)-2,5-diazabicyclo[2.2.1]heptan-2-yl)-N-hydroxypyrimidine-5-carboxamide]					IC50 ([1]; Table 9): < 0.05 µM; IC50 [2, 3]: 1 to 5 µM

Compound	IC50 ([1]; Table 8)	IC50 [2, 4]	IC50 ([1]; Table 10)	IC50 [2, 5]	also measured
O=C(NO)c1ccc(N2C(=O)c3ccccc3Oc3ccccc32)cc1 [N-hydroxy-4-(11-oxodibenzo[b,f][1,4]oxazepin-10(11H)-yl)benzamide]			0.1 to 1 µM	> 15 µM	
COc1cccc2c1C(c1ccc(C(=O)NO)cc1)=Nc1ccccc1O2 [(Z)—N-hydroxy-4-(1-methoxydibenzo[b,f][1,4]oxazepin-11-yl)benzamide]	0.1 to 1 µM	> 15 µM			
O=C(NO)c1ccc(C2=Nc3ccccc3Oc3ccccc32)c(F)c1 [(E)-4-(dibenzo[b,f][1,4]oxazepin-11-yl)-3-fluoro-N-hydroxybenzamide]	1 to 10 µM	5 to 15 µM			
O=C(Cc1ccc(CN2C(=O)c3ccccc3Oc3ccccc32)cc1)NO [N-hydroxy-2-(4-((11-oxodibenzo[b,f][1,4]oxazepin-10(11H)-yl)methyl)phenyl)acetamide]			0.1 to 1 µM	1 to 5 µM	
Cc1cccc(N2C[C@H]3C[C@@H]2CN3c2ccc(C(=O)NO)cc2)c1 [N-hydroxy-4-((1R,4R)-5-m-tolyl-2,5-diazabicyclo[2.2.1]heptan-2-yl)benzamide]					IC50 ([1]; Table 9): 0.1 to 1 µM; IC50 [2, 3]: 1 to 5 µM
O=C(NO)c1ccc(/C=C/CN2C(=O)c3ccccc3Oc3ccccc32)cc1 [(E)-N-hydroxy-4-(3-(11-oxodibenzo[b,f][1,4]oxazepin-10(11H)-yl)prop-1-enyl)benzamide]			0.05 to 0.1 µM	< 1 µM	
O=C(NO)c1ccc(CN2c3ccccc3C=Cc3ccccc32)cc1 [(Z)-4-((5H-dibenzo[b,f]azepin-5-yl)methyl)-N-hydroxybenzamide]			< 0.05 µM	5 to 15 µM	
O=C(NO)c1cnc(N2C[C@@H]3C[C@H]2CN3c2ccccc2)nc1 [N-hydroxy-2-((1S,4S)-5-phenyl-2,5-diazabicyclo[2.2.1]heptan-2-yl)pyrimidine-5-carboxamide]					IC50 ([1]; Table 9): 0.05 to 0.1 µM; IC50 [2, 3]: < 1 µM
O=C(NO)c1ccc(C2=Nc3ccccc3Oc3ccccc32)cc1F [(Z)-4-(dibenzo[b,f][1,4]oxazepin-11-yl)-2-fluoro-N-hydroxybenzamide]	0.1 to 1 µM	5 to 15 µM			
O=C(NO)c1cnc(N2CC3CC2CO3)nc1 (stereo not drawn) [2-(2-oxa-5-azabicyclo[2.2.1]heptan-5-yl)-N-hydroxypyrimidine-5-carboxamide]					IC50 ([1]; Table 9): 0.1 to 1 µM; IC50 [2, 3]: 1 to 5 µM
CN1C(=O)CN=C(c2ccccc2)c2ccc(/C=C/C(=O)NO)cc21 [(E)-N-hydroxy-3-((Z)-1-methyl-2-oxo-5-phenyl-2,3-dihydro-1H-benzo[e][1,4]diazepin-8-yl)acrylamide]			0.1 to 1 µM		IC50 ([2]; read-out: HDAC Inhibition (IC50 μM) WC mouse cortical neurons, Table 10): 1 to 5 µM
Cc1cccc2c1Oc1ccccc1C(c1ccc(C(=O)NO)cc1)=N2 [(Z)—N-hydroxy-4-(6-methyldibenzo[b,f][1,4]oxazepin-11-yl)benzamide]	0.1 to 1 µM	5 to 15 µM			
O=C(NO)c1cnc(NC2c3ccccc3C=C(F)c3ccccc32)nc1 (stereo not drawn)			< 0.05 µM	< 1 µM	
O=C(NO)c1cnc(N2CC3CC(CN(c4cc(C(F)(F)F)ccn4)C3)C2)nc1 [N-hydroxy-2-(7-(4-(trifluoromethyl)pyridin-2-yl)-3,7-diazabicyclo[3.3.1]nonan-3-yl)pyrimidine-5-carboxamide]					IC50 ([1]; Table 9): 0.1 to 1 µM; IC50 [2, 3]: > 15 µM
CCN1c2ccccc2N=C(c2ccc(C(=O)NO)cc2)c2cccnc21 [(Z)-4-(11-ethyl-11H-benzo[b]pyrido[2,3-e][1,4]diazepin-5-yl)-N-hydroxybenzamide]	< 0.05 µM	< 1 µM			
COc1ccc2c(c1)Oc1ccccc1N=C2c1ccc(C(=O)NO)cc1 [(Z)—N-hydroxy-4-(3-methoxydibenzo[b,f][1,4]oxazepin-11-yl)benzamide]	0.1 to 1 µM	1 to 5 µM			
O=C(NO)c1ccc(C2=Nc3ccccc3Oc3c(OCCN4CCOCC4)cccc32)cc1 [(Z)—N-hydroxy-4-(4-(2-morpholinoethoxy)dibenzo[b,f][1,4]oxazepin-11-yl)benzamide]	< 0.05 µM	< 1 µM			
O=C(NO)c1ccc(CNC2c3ccccc3CCc3ccccc32)cc1			< 0.05 µM	5 to 15 µM	
O=C(/C=C/c1ccc(CN2c3ccccc3C=Cc3ccccc32)cc1)NO [(E)-3-(4-(((Z)-5H-dibenzo[b,f]azepin-5-yl)methyl)phenyl)-N-hydroxyacrylamide]			0.05 to 0.1 µM	1 to 5 µM	
